Key:
Assay type in all cases: biochemical
[1] = biological target: HUMAN LUNG TRYPTASE; test: In vitro inhibition of human lung tryptase, rate constants by progress curve analysis; conditions: nonlinear regression (ENZFITTER)
Description: Using standard in vitro methodology for determining inhibitory activity of tryptase (Journal of Biological Chemistry, Vol. 261, Jun. 5, pp. 7322-7379, 1986), the following results have been obtained:
^a Rate constants were determined by progress curve analysis using a
nonlinear regression program (ENZFITTER)

[2] = system: human plasma; test: Anticoagulant effect in human plasma, thrombin time (TT)
Description: (§1) Anticoagulant data may be represented as follows:

[3] = system: human plasma; test: Anticoagulant effect in human plasma, activated partial thromboplastin time (aPTT)
Description: as §1

| Molecule | Ki [1] [nM] | koff [1] [s⁻¹] | kon [1] [M⁻¹ s⁻¹] | ID2 TT (amount required for doubling the clotting time) [2] [µM] | ID2 a PTT (amount required for doubling the clotting time) [3] [µM] |
| --- | --- | --- | --- | --- | --- |
| CC(=O)O.F.N=C(N)NCCCC(NC(=O)[C@@H]1CCCN1C(=O)[C@H](N)Cc1ccccc1)C(=O)C(F)(F)F.O (stereo partly drawn) [D-Phe--Pro--Arg--CF3, L-Prolinamide, N-D-phenylalanyl-N-[1-[3-[(amino]iminomethyl)amino]propyl]-3,3,3-trifluoro-2-oxopropyl]-, hydrofluoride, acetate, hydrate] | 500 | – | – | – | – |
| Cl.Cl.N=C(N)NCCCC(NC(=O)[C@@H]1CCCN1C(=O)[C@H]1Cc2ccccc2CN1)C(=O)C(F)(F)C(F)(F)F.O (stereo partly drawn) [D-3-TIC--Pro--Arg--CF2 CF3, L-Prolinamide, N-[2-[3-[(aminoiminomethyl)amino]propyl]-3,3,4,4,4-pentafluoro-2-oxobutyl]-1-D-[(1,2,3,4-tetrahydro-3-isoquinolinyl)carbonyl]-, dihydrochloride, hydrate] | 75 | 0.00034 | 4700 ± 200 | – | – |
| CC(=O)O.F.N=C(N)NCCCC(NC(=O)[C@@H]1CCCN1C(=O)[C@H](N)Cc1ccccc1)C(=O)C(F)(F)F.O (stereo partly drawn) [D-Phe--Pro--Arg--CF3] | – | 0.00015 | 290 ± 20 | 43 | 148 |
| L-Prolinamide, N-methyl-D-phenylalanyl-N-[1-[3-[(aminoiminomethyl) amino]propyl]-3,3,3-trifluoro-2-oxopropyl]-, dihydrochloride, hydrate [D-CH3 Phe--Pro--Arg--CF3] | 80 | 1.5e-05 | 200 ± 10 | 108 | 218 |

Reference: patent publication US5563156A, “Thrombin inhibitors” (Merrell Pharmaceuticals Inc., priority 1991, dated 1996)
